Reference: patent US20240166765A1, “INFLAMMATORY DISEASE TREATMENT USING ANTI-TISSUE FACTOR ANTIBODIES” (Iconic Therapeutics LLC, priority 2020, published 2024)
Square brackets hold non-standard residues; d marks the D form. Peptide text beside a SMILES is read from it. * marks the point of attachment. Dolaproine = CO[C@@H]([C@@H]1CCCN1)[C@@H](C)C(=O)O; Dil = CC[C@H](C)[C@H](NC)[C@@H](CC(=O)O)OC; X1 = C[C@@H](N*)[C@@H](O)c1ccccc1; NMeV = CN[C@H](C(=O)O)C(C)C

Tests used:
[1] = test system: chimeric human-rat TF constructs expressed on HEK293 cells; experiment: Epitope binning, chimeric TF construct mapping (live cell staining assay); assay type: binding
Experimental: To establish binding of the anti-human TF antibodies to the various TF constructs, HEK293 cells were transfected with a DNA plasmid that co-expresses the TF construct and a green fluorescent protein marker. For a subset of the antibodies, an antibody titration (a 12-point 1:3 dilution series starting at 250 nM) was evaluated on select TF constructs (See international PCT application PCT/US2019/012427 and U.S. utility application Ser. No. 16/959,652, incorporated herein by reference in their entirety). […] Two days after transfection, cells were collected from the tissue culture plate, stained with 15 μg/ml of the indicated anti-TF antibody, washed, stained with anti-human IgG-Fc Alexa Fluor 647 polyclonal antibody, washed, and stained with the viability dye 4′,6-Diamidino-2-Phenylindole, Dihydrochloride. Upon acquisition of 80,000 live events on a flow cytometer, live cells marked with the fluorescent marker were analyzed for the degree of staining by the anti-TF antibody. […] As used herein, the term “live cell staining assay” refers to the antibody binding assay used in this example.
When “Percentage antibody binding to TF construct relative to hTF” in Tables 51 and 52 was less than 50%, the antibody was considered a non-binder (0) in Tables 53 and 54.

[2] = test system: thrombin generation (relipidated TF in normal pooled plasma); experiment: Thrombin generation assay (TGA) without antibody pre-incubation; assay type: biochemical, human; details: Table 44
Experimental: (§1) The TGA assay was performed using the calibrated-automated-thrombogram (CAT) instrument manufactured and distributed by STAGO. The test method design was equivalent to a standard CAT assay measurement, except that the plasma source was NPP in citrate/CTI. […] Relipidated TF was added to a 96-well assay plate, followed by addition of the antibody/NPP mixture. After a 10-min incubation or directly after combining the relipidated TF with antibody/NPP, thrombin generation was initiated by the addition of calcium and the thrombin substrate. The STAGO software was used to report the following parameters: Peak IIa (highest thrombin concentration generated [nM]); Lag Time (time to IIa generation [min]); ETP (endogenous thrombin potential, area under the curve [nM×min]); and ttPeak (time to Peak IIa [min]).
as §1, with “was normal pooled plasma (NPP)” for “was NPP”, “in citrate supplemented with corn trypsin inhibitor (citrate/CTI).” for “in citrate/CTI.”
(§2) TGA assay was performed using the calibrated-automated-thrombogram (CAT) instrument manufactured and distributed by STAGO (Diagnostica Stago SAS, Asnieres sur Seine, France). […] The anti-TF antibodies were titrated at 0, 10, 50 and 100 nM and mixed with NPP in citrate/CTI. Relipidated TF was added to a 96-well assay plate, followed by addition of the antibody/NPP mixture. After a 10-min incubation or directly after combining the relipidated TF with antibody/NPP, thrombin generation was initiated by the addition of calcium and the thrombin substrate. The STAGO software was used to report the following parameters: Peak IIa (highest thrombin concentration generated on the thrombin generation curve [nM]); Lag Time (time from assay start to the moment 10 nM of thrombin is formed [min]); ETP (endogenous thrombin potential, area under the curve [nM×min]); and ttPeak (time from assay start to Peak IIa [min]). […] As used herein, the term “thrombin generation assay” (TGA) refers to the TGA used in this example.

[3] = test system: thrombin generation (relipidated TF in normal pooled plasma); experiment: Thrombin generation assay (TGA) with 10 min antibody pre-incubation; assay type: biochemical, human
Experimental: as §1
as §1, with “was normal pooled plasma (NPP)” for “was NPP”, “in citrate supplemented with corn trypsin inhibitor (citrate/CTI).” for “in citrate/CTI.”
as §2

HUVECs = experiment: G2/M arrest (phospho-Histone H3) in HUVECs; assay type: cell-based, human; details: HCT-116 cells and HUVECs
Experimental: To further understand the resistance of endothelial cells to anti-TF ADCs, cell cycle progression was evaluated 24 h after addition of the cytokines and TF-specific ADCs. Arrest at the G2/M phase of the cell cycle was analyzed as previously described in Theunissen et al, Methods Enzymol, 2006, 409:251-284. Briefly, low-passage HUVECs (Lifeline Cell Technologies, Frederick, MD, USA), propagated in VascuLife VEGF-Mv Endothelial media (Lifeline Cell Technologies), and HCT-116 cells were seeded on 12-well plates. The next day, media was removed and replaced with fresh media (no cytokines) or media containing 5 […] IL1-beta, 25 ng/mL TNF-alpha and 50 ng/mL VEGF (with cytokines). A titration of MMAE-linked ADCs or free MMAE was added to the cells. After 24 h of treatment, cells were fixed in ice-cold 70% ethanol. Subsequently, the cells were washed with flow cytometry buffer (PBS, 1% FBS, 0.1% Triton) and stained for 1 h with a 1:100 dilution of phospho-Histone H3 (Ser10) (D2C8 PE Conjugate, Cell Signaling Technology). After 2 washes, the cells were treated for 20 min with 100 μg/mL PureLink RNAse A (ThermoFisher Scientific), followed by the addition of the viability dye TO-PRO-3 Iodide (ThermoFisher Scientific). 40,000 events were collected on a Novocyte flow cytometer. In the Flowjo data analysis software cell doublets and aneuploid cells were excluded. […]

[4] = test system: DSS-colitis model, C57BL/6 mice; experiment: DSS-colitis model (2.5% DSS); assay type: in vivo, mouse
Source text: In a colitis model, the administration of dextran sulfate sodium (DSS) causes colitis-like pathologies due to toxicity to colonic epithelial cells, which leads to a compromised mucosal function and infiltration of neutrophils, macrophages and lymphocytes. It results in loss of epithelial barrier function, secretion of proinflammatory cytokines and chemokines, and the influx of cells with cytotoxic potential, such as neutrophils and inflammatory macrophages. It is not considered a T-cell-mediated process in the art.
On Day 0 of the study, 8-12 week old male C57BL/6 mice received either sterile water ad libitum (Group 1, n=5) or 2.5% (w/v) DSS dissolved into sterile water ad libitum (Groups 2-5, n=10 mice per group).
On Day 8, all animals received sterile water for the remainder of the experiment and were euthanized on day 10.
Throughout the study clinical observations were made daily. Body weight was measured and recorded daily (from Day 0 to Day 10). Body condition was also evaluated visually daily using the scoring system illustrated in FIG. 2. The stool consistency was determined qualitatively and blood in stool was measured daily using a hemoccult stool bleeding test. […]
Following euthanasia, the animal was measured (length determined) and weighed. Weight/length ratio was calculated for each animal. The animals were dissected and the weight of their spleens was determined. […]

[5] = test system: LPS-induced acute lung injury model, BALB/c mice; experiment: LPS-induced acute lung injury model; assay type: in vivo, mouse; details: end of the study; 431D8 1 mg/kg IP; dexamethasone 3 mg/kg IP
Experimental: For this study, 48 male BALB/c mice were randomly and prospectively assigned to five groups: a group of six (n=6), a group of twelve (n=12), and three groups of ten (n=10 per group) animals each. On Day 0, animals in Groups 2-5 were dosed according to Table 63, 60 minutes prior to LPS administration. […] Animals were then released into a recovery cage until they woke up.
All animals were weighed and evaluated for respiratory distress daily (defined as an increase in respiratory rate and/or obvious respiratory effort). Animals with severe respiratory distress, or animals that lost greater than 20% of their total starting body weight, were euthanized within 2 hours of observation.
At 48 hours post-LPS challenge all animals were sacrificed with an overdose of xylazine and bronco-alveolar lavage (BAL) of the right lung only was performed (by tying off the left lung) for total and differential cell counts as well as total protein quantification and cytokine quantitation by Luminex. Lungs were then weighed (total lung weight and right lung weight). The right lung was frozen in liquid nitrogen and stored at −80° C. […] All slides were evaluated by a board-certified veterinary pathologist who used a scoring system to evaluate extent of lung injury and inflammation.

## 5G9: previously described TF-specific antibody
[1]; Table 53, construct rTF
  Antibody binding to TF construct: 0 (less than 50%, the antibody was considered a non-binder (0))
[1]; Table 54, construct rTF
  Antibody binding to TF construct: 0 (less than 50%, the antibody was considered a non-binder (0))
[1]; chimeric human-rat TF constructs
  Constructs not bound by antibody: rTF, h1-107_r, h108-219_r, h159-219_r, h159-189_r, h159-174_r, h167-174_r, h190-219_r
[1]; construct h78-107_r (21), human segment replaced by rat segment
  Antibody binding to TF construct: 1 (between 50% and 150%, the antibody was considered a binder (1))
[1]; construct h108-219_r (46), human segment replaced by rat segment
  Antibody binding to TF construct: 0 (less than 50%, the antibody was considered a non-binder (0))
[1]; construct h159-219_r (27), human segment replaced by rat segment
  Antibody binding to TF construct: 0 (less than 50%, the antibody was considered a non-binder (0))
[1]; construct r141-194_h (rat amino acid segment replaced by human segment, 20 amino acid changes)
  Antibody binding to TF construct: 0 (less than 50%, the antibody was considered a non-binder (0))
[1]; construct r141-194_h (rat amino acid segment replaced by human segment, 20 amino acid changes), 15 μg/ml antibody
  Percent antibody binding to TF construct relative to hTF: 32%
[2]; Ab conc. 10 nM
  ETP: 1176 nM·min

## 10H10: previously described TF-specific antibody [reference compound]
[3]; Ab conc. 10 nM
  ETP: 1807 nM·min
[3]; Ab conc. 50 nM
  ETP: 1754 nM·min
[3]; Ab conc. 100 nM
  ETP: 1795 nM·min
[2]; Ab conc. 10 nM
  ETP: 2036 nM·min
[2]; Ab conc. 50 nM
  ETP: 1978 nM·min
[2]; Ab conc. 100 nM
  ETP: 1945 nM·min

## CC[C@H](C)[C@@H]([C@@H](CC(=O)N1CCC[C@H]1[C@H](OC)[C@@H](C)C(=O)N[C@H](C)[C@@H](O)c1ccccc1)OC)N(C)C(=O)[C@@H](NC(=O)[C@@H](NC)C(C)C)C(C)C [MMAE, monomethyl auristatin E] (H-[NMeV]V[Dil][Dolaproine]-X1)
HUVECs
  phosphorylation of histone H3: increase the phosphorylation of histone H3 to a similar extent in both HCT-116 cells and HUVECs

## Cyclosporine [CsA, reference compound]
[4]; after Day 7
  body condition score: most significant deterioration in body condition
[4]; by Day 4, CsA 80 mg/kg once daily oral gavage
  weight loss relative to baseline: ~20%

## Dexamethasone [reference compound]
[5]
  weight loss relative to baseline: about 2%
